# Reference: patent US20210315844A1, “ENDOXIFEN FOR THE TREATMENT OF BIPOLAR I DISORDER” (Jina Pharmaceuticals, Inc., priority 2020, published 2021)
# Columns and labels:
# [1] = tested on: patient of bipolar I disorders; assay: Clinical study: C-SSRS score / risk of suicidal behavior in patients treated with endoxifen enteric coated tablet; assay type: in vivo, human; conditions: day 21 (EOT)
# Procedure: Clinical study of an enteric coated tablet comprising endoxifen citrate formulation was carried out by administering to the patient doses of 2 mg to 16 mg of endoxifen citrate in an enteric coated tablet once per day for at least 21 days according to the present application.
# This study was a multicenter, randomized, double-blind, double-dummy, active controlled, parallel study to assess the efficacy and safety of endoxifen enteric coated tablet 8 mg and divalproex sodium extended release tablet 1000 mg in patient of bipolar I disorders, this study also evaluated the risk of suicidal behavior in the patient and that has progressed during or after treatment with at least one drug(s) selected from lithium, valproate, carbamazepine or an atypical (except clozapine) or typical antipsychotic.
# Total 110 patients were qualified for PP population.
# PKC = conditions: relative to tamoxifen; cited from earlier work
smiles,measurement,setting,value
"CC/C(=C(\c1ccc(O)cc1)c1ccc(OCCNC)cc1)c1ccccc1.O=C(O)CC(O)(CC(=O)O)C(=O)O [Endoxifen, (Z)-1-(4-Hydroxyphenyl)-1-{4-[2-(monomethylamino)ethoxy]phenyl}-2-phenyl-1-butene citrate]",risk of suicidal behavior,[1],zero
same,potency in inhibiting the PKC activity compared to tamoxifen,PKC,four-fold higher potency
